Source: patent US4463171A, “Derivatives of macrolide antibiotics” (Sanraku-Ocean Co., Ltd., priority 1982, dated 1984)
Values after ≈ are worked out from the molar mass of the structure shown. Like-named read-outs stand apart in the source and are kept apart here.

Experiments:
Experiment in all cases: Antibacterial activity (minimum inhibitory concentration), tube dilution method
Format in all cases: cell-based
[1] = tested on: Staphylococcus aureus 209P
Experimental: (§1) The antibacterial activities of some typical compounds of this invention were measured by a tube dilution method in a brain heart infusion broth (pH 7.5) as a culture medium.

[2] = tested on: Bacillus subtilis NRRL B558; details: for MIC: Bacillus subtilis
Experimental: as §1

[3] = tested on: Staphylococcus aureus MS9861; details: for MIC: Staphylococcus aureus
Experimental: as §1

[4] = tested on: Klebsiella pneumoniae PCI602
Experimental: as §1

[5] = tube dilution method, brain heart infusion broth (pH 7.5), read-out: minimum inhibitory concentration, Staphylococcus aureus 209P
[6] = NRRLB558, tube dilution method, brain heart infusion broth (pH 7.5), read-out: minimum inhibitory concentration, Bacillus subtilis NRRL B558
[7] = MS9861, tube dilution method, brain heart infusion broth (pH 7.5), read-out: minimum inhibitory concentration, Staphylococcus aureus MS9861
[8] = PCI602, tube dilution method, brain heart infusion broth (pH 7.5), read-out: minimum inhibitory concentration, Klebsiella pneumoniae PCI602
[9] = tube dilution method, brain heart infusion broth (pH 7.5)

Structure (SMILES)	MIC [1, 5]	MIC [2, 6]	MIC [3, 7]	MIC [4, 8]	MIC ([1]; pH 7.5, read-out: minimum inhibitory concentration, Staphylococcus aureus 209P)	MIC ([2]; NRRLB558, pH 7.5, read-out: minimum inhibitory concentration, Bacillus subtilis NRRL B558, tube dilution method, brain heart infusion broth (pH 7.5))	minimum inhibitory concentration, Bacillus subtilis NRRL B558 [2, 9]	MIC ([3]; MS9861, pH 7.5, read-out: minimum inhibitory concentration, Staphylococcus aureus MS9861, tube dilution method, brain heart infusion broth (pH 7.5))	minimum inhibitory concentration, Staphylococcus aureus MS9861 [3, 9]	MIC ([4]; PCI602, pH 7.5, read-out: minimum inhibitory concentration, Klebsiella pneumoniae PCI602)
CCC1OC(=O)CC(O)C(C)C(OC2OC(C)C(OC3CC(C)(O)C(OC(=O)CSc4ccncc4)C(C)O3)C(N(C)C)C2O)C(CC=O)CC(C)C(=O)C=CC(C)=CC1CBr (stereo not shown) [R1=H, R3=drawing 70, AR4=Br]	0.2 µg/mL (≈ 0.209 µM)	< 0.2 µg/mL	0.8 µg/mL (≈ 0.837 µM)	12.5 µg/mL (≈ 13.1 µM)						
CCC1OC(=O)CC(O)C(C)C(OC2OC(C)C(OC3CC(C)(O)C(OC(C)=O)C(C)O3)C(N(C)C)C2O)C(CC=O)CC(C)C(=O)C=CC(C)=CC1CO (stereo not shown) [R1=H, R3=COCH3, AR4=OH]	1.6 µg/mL (≈ 2.04 µM)	1.6 µg/mL (≈ 2.04 µM)	25 µg/mL (≈ 31.9 µM)	3.1 µg/mL (≈ 3.95 µM)						
CCC1OC(=O)CC(O)C(C)C(OC2OC(C)C(OC3CC(C)(O)C(O)C(C)O3)C(N(C)C)C2O)C(CC=O)CC(C)C(=O)C=CC(C)=CC1CSC (stereo not shown) [R1=H, R3=H, AR4=SCH3, 23-Deoxy-23-methylthio-YO-9010]	0.8 µg/mL (≈ 1.04 µM)	0.8 µg/mL (≈ 1.04 µM)	1.6 µg/mL (≈ 2.07 µM)	6.3 µg/mL (≈ 8.16 µM)						
CCC1OC(=O)CC(O)C(C)C(OC2OC(C)C(OC3CC(C)(O)C(O)C(C)O3)C(N(C)C)C2O)C(CC=O)CC(C)C(=O)C=CC(C)=CC1CSc1ccccc1 (stereo not shown) [R1=H, R3=H, AR4=drawing 80]	< 0.2 µg/mL	< 0.2 µg/mL	1.6 µg/mL (≈ 1.92 µM)	25 µg/mL (≈ 30 µM)						
CCC1OC(=O)CC(O)C(C)C(OC2OC(C)C(OC3CC(C)(O)C(O)C(C)O3)C(N(C)C)C2O)C(CC=O)CC(C)C(=O)C=CC(C)=CC1COC(=O)CSc1ccncc1 (stereo not shown) [R1=H, R3=H, AR4=drawing 72]	0.8 µg/mL (≈ 0.896 µM)	< 0.2 µg/mL	3.1 µg/mL (≈ 3.47 µM)	12.5 µg/mL (≈ 14 µM)						
CCC1OC(=O)CC(O)C(C)C(OC2OC(C)C(OC3CC(C)(O)C(O)C(C)O3)C(N(C)C)C2O)C(CC=O)CC(C)C(=O)C=CC(C)=CC1COC(C)=O (stereo not shown) [R1=H, R3=H, AR4=OCOCH3]	0.4 µg/mL (≈ 0.51 µM)	0.4 µg/mL (≈ 0.51 µM)	1.6 µg/mL (≈ 2.04 µM)	25 µg/mL (≈ 31.9 µM)						
CCC1OC(=O)CC(O)C(C)C(OC2OC(C)C(OC3CC(C)(O)C(OC(=O)CC(C)C)C(C)O3)C(N(C)C)C2O)C(CC=O)CC(C)C(=O)C=CC(C)=CC1CBr (stereo not shown) [R1=H, R3=drawing 68, AR4=Br, 23-Deoxy-23-bromo-4"-O-isovaleryl-YO-9010]	0.8 µg/mL (≈ 0.9 µM)	0.4 µg/mL (≈ 0.45 µM)	1.6 µg/mL (≈ 1.8 µM)	6.3 µg/mL (≈ 7.09 µM)						
CCC1OC(=O)CC(O)C(C)C(OC2OC(C)C(OC3CC(C)(OC(C)=O)C(OC(=O)CC(C)C)C(C)O3)C(N(C)C)C2O)C(CC=O)CC(C)C(=O)C=CC(C)=CC1COC(C)=O (stereo not shown) [(R2)=COCH3, R3=drawing 75, AR4=OCOCH3]	1.6 µg/mL (≈ 1.76 µM)	1.6 µg/mL (≈ 1.76 µM)	6.3 µg/mL (≈ 6.92 µM)	25 µg/mL (≈ 27.5 µM)						
CCC1OC(=O)CC(OC(C)=O)C(C)C(OC2OC(C)C(OC3CC(C)(O)C(OC(=O)CC(C)C)C(C)O3)C(N(C)C)C2O)C(CC=O)CC(C)C(=O)C=CC(C)=CC1CBr (stereo not shown) [R1=COCH3, R3=drawing 68, AR4=Br, 3-O-Acetyl-23-deoxy-23-bromo-4"-O-isovaleryl-YO-9010]	1.6 µg/mL (≈ 1.72 µM)	1.6 µg/mL (≈ 1.72 µM)	3.1 µg/mL (≈ 3.33 µM)	> 100 µg/mL						
CCC1OC(=O)CC(O)C(C)C(OC2OC(C)C(OC3CC(C)(O)C(O)C(C)O3)C(N(C)C)C2O)C(CC=O)CC(C)C(=O)C=CC(C)=CC1COC(=O)Cc1ccccc1 (stereo not shown) [R1=H, R3=H, AR4=drawing 71]					0.4 µg/mL (≈ 0.465 µM)	< 0.2 µg/mL	0.4 µg/mL (≈ 0.465 µM)	1.6 µg/mL (≈ 1.86 µM)	3.1 µg/mL (≈ 3.6 µM)	6.3 µg/mL (≈ 7.33 µM)
CCC1OC(=O)CC(OC(C)=O)C(C)C(OC2OC(C)C(OC3CC(C)(O)C(OC(=O)CC(C)C)C(C)O3)C(N(C)C)C2O)C(CC=O)CC(C)C(=O)C=CC(C)=CC1CO (stereo not shown) [N-1 substance, 3-O-acetyl-4"-O-isovaleryl-YO-9010, reference compound]	0.4 µg/mL (≈ 0.461 µM)	0.8 µg/mL (≈ 0.922 µM)	1.6 µg/mL (≈ 1.84 µM)	3.1 µg/mL (≈ 3.57 µM)						
CCC1OC(=O)CC(O)C(C)C(OC2OC(C)C(OC3CC(C)(O)C(O)C(C)O3)C(N(C)C)C2O)C(CC=O)CC(C)C(=O)C=CC(C)=CC1COC1CCCCO1 (stereo not shown) [R1=H, R3=H, AR4=drawing 84]	0.8 µg/mL (≈ 0.968 µM)	0.8 µg/mL (≈ 0.968 µM)	3.1 µg/mL (≈ 3.75 µM)	12.5 µg/mL (≈ 15.1 µM)						
CCC1OC(=O)CC(O)C(C)C(OC2OC(C)C(OC3CC(C)(O)C(O)C(C)O3)C(N(C)C)C2O)C(CC=O)CC(C)C(=O)C=CC(C)=CC1COC(=O)C(NSc1ccccc1[N+](=O)[O-])c1ccccc1 (stereo not shown) [R1=H, R3=H, AR4=drawing 74]	0.8 µg/mL (≈ 0.778 µM)	0.8 µg/mL (≈ 0.778 µM)	3.1 µg/mL (≈ 3.01 µM)	3.1 µg/mL (≈ 3.01 µM)						
CCC1OC(=O)CC(O)C(C)C(OC2OC(C)C(OC3CC(C)(O)C(OC(=O)CSc4ccccc4)C(C)O3)C(N(C)C)C2O)C(CC=O)CC(C)C(=O)C=CC(C)=CC1COC(C)=O (stereo not shown) [R1=H, R3=drawing 76, AR4=OCOCH3]	0.8 µg/mL (≈ 0.856 µM)	0.2 µg/mL (≈ 0.214 µM)	1.6 µg/mL (≈ 1.71 µM)	100 µg/mL (≈ 107 µM)						
